Measured values reported in patent publication US20090088345A1, “NECESSARY AND SUFFICIENT REAGENT SETS FOR CHEMOGENOMIC ANALYSIS” (priority 2004, published 2009).

Tested on: PPARα signature
Test: Scalar product (signature score) of compound treatments against PPARα gene signatures from rat liver microarray expression profiles
Type: in vivo
Conditions: previous observation, original PPARα signature
Protocol: “Scalar product” (or “Signature score”) as used herein refers to the sum of impacts for all genes in a signature less the bias for that signature.
The detailed description of the construction of this chemogenomic dataset is described in Examples 1 and 2 of Published U.S. Pat. Appl. No. 2005/0060102 A1, published Mar. 17, 2005, which is hereby incorporated by reference for all purposes. Briefly, in vivo short-term repeat dose rat studies were conducted on over 580 test compounds, including marketed and withdrawn drugs, environmental and industrial toxicants, and standard biochemical reagents. Rats (three per group) were dosed daily at either a low or high dose. The low dose was an efficacious dose estimated from the literature and the high dose was an empirically-determined maximum tolerated dose, defined as the dose that causes a 50% decrease in body weight gain relative to controls during the course of the 5 day range finding study. Animals were necropsied on days 0.25, 1, 3, and 5 or 7. […]
Log10-ratios are computed for each gene as the difference of the averaged logs of the experimental signals from (usually) three drug-treated animals and the averaged logs of the control signals from (usually) 20 mock vehicle-treated animals. To assign a significance level to each gene expression change, the standard error for the measured change between the experiments and controls is computed. […]

**Q.** For `CC(C)(Oc1ccc(Cl)cc1)C(=O)O` [clofibric acid], which “scalar product against the PPARα signature” value is on record?
**A.** weakest of the known PPARα agonists
